# Data taken from US20080287398A1, “COLD MENTHOL RECEPTOR-1 ANTAGONISTS” (priority 2007, published 2008).
# Values joined by “and” are separate entries in the source; they are usually repeats but may differ in a detail not shown here. Equal entries are not always repeated. Where two headings read alike, the source gives them in different places.
# Target: T1, canine TRPM8 (Canis lupus familiaris, UniProt Q1A7N1)
# T1 construct: expressed in transfected cells
# Experiment: In vitro canine TRPM8 functional assay (Ca2+-sensitive dye, FLIPR/FDSS, icilin activation)
# Type: cell-based
# Conditions: HEK293 cells expressing canine TRPM8, icilin activation; for % I (1 μM): 1 μM compound; for IC50: eight-point dose-response; for % I (5 μM): 5 μM compound; for % I (0.5 μM): 0.5 μM compound
# Procedure, shortened: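 Icilin challenge (final concentration producing ~80% of maximal response) followed a 5 min compound exposure in canine TRPM8-HEK293 cells dye-loaded with Calcium 3. Intracellular Ca2+ was read on FLIPR/FDSS. EC50 and IC50 values came from nonlinear sigmoidal dose-response fits of basal-subtracted, percent-of-maximum data averaged over quadruplicates.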
# [1] = HEK293, read-out: % I (1 μM), 1 μM compound
# T1 sequence (Q1A7N1 1-1104): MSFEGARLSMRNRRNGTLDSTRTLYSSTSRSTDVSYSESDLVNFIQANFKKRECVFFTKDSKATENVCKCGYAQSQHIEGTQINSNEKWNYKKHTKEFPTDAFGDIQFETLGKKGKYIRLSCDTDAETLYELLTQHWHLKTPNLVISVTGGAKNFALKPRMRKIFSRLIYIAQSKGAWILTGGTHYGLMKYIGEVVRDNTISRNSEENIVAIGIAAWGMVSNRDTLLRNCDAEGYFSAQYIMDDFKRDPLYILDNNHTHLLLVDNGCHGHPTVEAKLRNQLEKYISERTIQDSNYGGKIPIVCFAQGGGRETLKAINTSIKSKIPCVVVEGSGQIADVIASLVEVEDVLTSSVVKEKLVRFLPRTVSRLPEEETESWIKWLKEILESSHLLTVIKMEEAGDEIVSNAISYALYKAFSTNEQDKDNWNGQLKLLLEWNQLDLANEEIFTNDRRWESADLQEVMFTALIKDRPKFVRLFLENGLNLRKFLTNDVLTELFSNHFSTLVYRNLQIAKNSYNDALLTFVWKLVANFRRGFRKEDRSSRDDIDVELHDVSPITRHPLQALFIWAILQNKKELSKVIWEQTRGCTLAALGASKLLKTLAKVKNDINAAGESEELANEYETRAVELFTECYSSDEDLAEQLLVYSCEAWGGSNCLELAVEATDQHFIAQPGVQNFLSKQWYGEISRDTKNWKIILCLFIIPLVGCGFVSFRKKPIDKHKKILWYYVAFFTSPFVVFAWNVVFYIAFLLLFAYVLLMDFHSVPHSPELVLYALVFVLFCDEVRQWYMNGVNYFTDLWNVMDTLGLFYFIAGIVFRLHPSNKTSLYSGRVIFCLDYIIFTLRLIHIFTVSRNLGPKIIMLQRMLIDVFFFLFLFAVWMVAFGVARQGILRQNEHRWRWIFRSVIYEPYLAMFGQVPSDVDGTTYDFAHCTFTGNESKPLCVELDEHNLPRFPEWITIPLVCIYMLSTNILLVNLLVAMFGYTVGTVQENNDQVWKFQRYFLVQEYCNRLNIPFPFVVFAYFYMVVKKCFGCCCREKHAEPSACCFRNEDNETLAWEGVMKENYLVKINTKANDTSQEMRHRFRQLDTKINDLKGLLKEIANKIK
Structure (SMILES),% I (1 μM),IC50 (read-out: IC50),% I (0.5 μM),other results
CCOP(=O)(OCC)C(Cc1cc(C(F)(F)F)cc(C(F)(F)F)c1)c1cc2ccccc2s1 (stereo not shown) [Cpd 96],92%,0.64 µM,–,–
CCOP(=O)(OCC)C(Cc1ccc(F)cc1Cl)c1cc2ccccc2s1 (stereo not shown) [Cpd 98],79%,0.71 µM,–,–
CCOP(=O)(OCC)C(Cc1cc(C(F)(F)F)ccc1Cl)c1sc2ccccc2c1C (stereo not shown) [Cpd 99],100%,0.72 µM,–,–
CCOP(=O)(OCC)C(Cc1cccc(Cl)c1Cl)c1cc2ccccc2s1 (stereo not shown) [Cpd 100],82%,0.73 µM,–,–
"Cc1c(C(Cc2ccc(F)c(F)c2)P(=O)(OC2CCCCC2)OC2CCCCC2)sc2ccccc12 (stereo not shown) [Cpd 101, [2-(3,4-Difluoro-phenyl)-1-(3-methyl-benzo[b]thiophen-2-yl)-ethyl]-phosphonic acid dicyclohexyl ester]",–,0.75 µM,–,"inhibition at 1 µM (HEK293, 1 μM compound, read-out: % I (1 μM)): 55%"
CCOP(=O)(OCC)C(Cc1ccccc1C(F)(F)F)c1cc2ccccc2s1 (stereo not shown) [Cpd 102],86%,0.75 µM,–,–
"CCOP(=O)(OCCN(C)C)C(Cc1ccc(F)c(F)c1)c1sc2ccccc2c1C (stereo not shown) [Cpd 103, [2-(3,4-Difluoro-phenyl)-1-(3-methyl-benzo[b]thiophen-2-yl)-ethyl]-phosphonic acid 2-dimethylamino-ethyl ester ethyl ester]",–,–,–,inhibition at 1 µM [1]: 60%; IC50 (IC50 (μM)): 0.93 µM
"CCOP(=O)(Cc1cc2ccccc2s1)OCc1ccccc1C (stereo not shown) [Cpd 104, Benzo[b]thiophen-2-ylmethyl-phosphonic acid ethyl ester 2-methyl-benzyl ester]",–,–,–,% I (5 μM): 99%; inhibition at 1 µM [1]: 53%; IC50 (IC50 (μM)): 0.96 µM
CCOP(=O)(Cc1cc2ccccc2s1)OCc1ccc(F)cc1 (stereo not shown) [Cpd 107],–,1.3 µM,–,% I (5 μM): 99%
"CCOP(=O)(Cc1cc2ccccc2s1)OCc1ccccc1F (stereo not shown) [Cpd 109, Benzo[b]thiophen-2-ylmethyl-phosphonic acid ethyl ester 2-fluoro-benzyl ester]",–,–,–,% I (5 μM): 98%; inhibition at 1 µM [1]: 17%; IC50 (IC50 (μM)): 1.47 µM
CCOP(=O)(Cc1cc2ccccc2s1)OCc1ccccc1Br (stereo not shown) [Cpd 110],11%,2.32 µM,–,% I (5 μM): 96%
CCOP(=O)(Cc1cc2ccccc2s1)OCc1ccccc1 (stereo not shown) [Cpd 111],14%,–,–,–
CCOP(=O)(OCC)C(Cc1cc2c(cc1Cl)OCO2)c1cc2ccccc2s1 (stereo not shown) [Cpd 112],42%,–,–,–
CCOP(=O)(OCC)C(Cc1cc(C(F)(F)F)ccc1C(F)(F)F)c1sc2ccccc2c1C (stereo not shown) [Cpd 113],25%,–,–,–
"CCOP(=O)(OCC)C(Cc1ccccc1F)c1sc2ccccc2c1CN(C)C (stereo not shown) [Cpd 114, [1-(3-Dimethylaminomethyl-benzo[b]thiophen-2-yl)-2-(2-fluoro-phenyl)-ethyl]-phosphonic acid diethyl ester]",–,–,–,inhibition at 1 µM [1]: 15%
CCOP(=O)(OCC)C(Cc1ccccc1-c1ccccc1)c1sc2ccccc2c1C (stereo not shown) [Cpd 115],69%,–,–,–
CCOP(=O)(OCC)C(Cc1ccc(F)c(F)c1)c1sc2c(C(F)(F)F)cccc2c1C (stereo not shown) [Cpd 116],64%,–,–,–
"CCOP(=O)(OCC)C(Cc1ccc(F)c(F)c1)c1sc2cc(Cl)ccc2c1C1CCCC1 (stereo not shown) [Cpd 117, [1-(6-Chloro-3-cyclopentyl-benzo[b]thiophen-2-yl)-2-(3,4-difluoro-phenyl)-ethyl]-phosphonic acid diethyl ester]",–,–,–,inhibition at 1 µM [1]: 28%
CCOP(=O)(OCC)C(Cc1ccc(F)c(F)c1)c1c(C)c2ccccc2[s+]1[O-] (stereo not shown) [Cpd 118],23%,–,–,–

Structure (SMILES),% I (1 μM),IC50 (read-out: IC50),% I (0.5 μM),other results
CC(C)OP(=O)(OC(C)C)C(Cc1ccc(F)c(F)c1)c1cc2ccccc2o1 (stereo not shown) [Cpd 120],102%,0.39 µM,–,–
CC(C)OP(=O)(OC(C)C)C(Cc1cc(F)cc(F)c1)c1cc2ccccc2s1 (stereo not shown) [Cpd 121],103%,0.35 µM,–,–
CC(C)OP(=O)(OC(C)C)C(Cc1cccc(F)c1F)c1cc2ccccc2s1 (stereo not shown) [Cpd 122],102%,0.35 µM,–,–
CCC(C)P(=O)(C(C)CC)C(Cc1ccc(F)c(F)c1)c1oc2ccccc2c1Br (stereo not shown) [Cpd 123],103%,0.28 µM,–,–
CC(C)OP(=O)(OC(C)C)C(Cc1ccc(F)c(F)c1)c1oc2ccccc2c1Br (stereo not shown) [Cpd 124],103%,0.049 µM,–,–
CC(C)OP(=O)(OC(C)C)C(Cc1ccc(F)c(C(F)(F)F)c1)c1cc2ccccc2s1 (stereo not shown) [Cpd 125],103%,0.39 µM,–,–
CC(C)OP(=O)(OC(C)C)C(Cc1cc(C(F)(F)F)cc(Cl)c1F)c1cc2ccccc2s1 (stereo not shown) [Cpd 126],100%,0.41 µM,–,–
"CCOP(=O)(OCC)C(Cc1ccc(F)c(F)c1)c1sc2ccccc2c1-c1cccnc1F (stereo not shown) [Cpd 128, {2-(3,4-Difluoro-phenyl)-1-[3-(2-fluoro-pyridin-3-yl)-benzo[b]thiophen-2-yl]-ethyl}-phosphonic acid diethyl ester]",–,–,–,inhibition at 1 µM [1]: 100%; IC50 (IC50 (μM)): 0.02 µM
"CCOP(=O)(OCC)C(Cc1ccc(F)c(F)c1)c1sc2ccccc2c1-c1ccc(F)nc1 (stereo not shown) [Cpd 130, {2-(3,4-Difluoro-phenyl)-1-[3-(6-fluoro-pyridin-3-yl)-benzo[b]thiophen-2-yl]-ethyl}-phosphonic acid diethyl ester]",–,–,–,inhibition at 1 µM [1]: 100%; IC50 (IC50 (μM)): 0.11 µM
CCOP(=O)(OCC)C(Cc1ccc(F)c(F)c1)c1cc2cccnc2s1 (stereo not shown) [Cpd 131],28%,–,–,–
"CCOP(=O)(OCC)C(Cc1ccc(F)c(F)c1)c1sc2ncccc2c1Br (stereo not shown) [Cpd 132, 1-[(3-Bromo-thieno[2,3-b]pyridin-2-yl)-2-(3,4-difluoro-phenyl)-ethyl]-phosphonic acid diethyl ester]",–,–,–,inhibition at 1 µM [1]: 102%; IC50 (IC50 (μM)): 0.11 µM
CC(C)OP(=O)(OC(C)C)C(Cc1cccc(F)c1)c1cc2ccccc2s1 (stereo not shown) [Cpd 133],101%,0.34 µM,–,–
CC(C)OP(=O)(OC(C)C)C(Cc1cccc(Cl)c1)c1cc2ccccc2s1 (stereo not shown) [Cpd 134],101%,0.34 µM,–,–
CCOP(=O)(OCC)C(Cc1ccc(Cl)c(C(F)(F)F)c1)c1sc2ccccc2c1Br (stereo not shown) [Cpd 139],–,0.06 µM,102%,–
CCOP(=O)(OCC)C(Cc1cc(F)cc(C(F)(F)F)c1)c1sc2ccccc2c1Br (stereo not shown) [Cpd 140],–,0.056 µM,102%,–
CCOP(=O)(OCC)C(Cc1cccc(C(F)(F)F)c1)c1sc2ccccc2c1Br (stereo not shown) [Cpd 141],–,0.051 µM,100%,–
CCOP(=O)(OCC)C(Cc1cccc(C(F)(F)F)c1F)c1sc2ccccc2c1Br (stereo not shown) [Cpd 142],–,0.054 µM,101%,–
CCOP(=O)(OCC)C(Cc1ccc(F)c(OC)c1)c1sc2ccccc2c1Br (stereo not shown) [Cpd 156],–,–,–,"inhibition at 0.5 µM (HEK293, read-out: % I (0.5 μM), 0.5 μM compound): 103%; IC50 (IC50 (μM)): 0.015 µM and 0.032 µM"
CC(C)OP(=O)(OC(C)C)C(Cc1ccc(C(F)(F)F)c(F)c1)c1sc2ccccc2c1Cl (stereo not shown) [Cpd 174],–,0.089 µM,104%,–

Structure (SMILES),% I (1 μM),IC50 (read-out: IC50),% I (0.5 μM),other results
CC(C)OP(=O)(OC(C)C)C(Cc1ccc(C(F)(F)F)cc1)c1sc2ccccc2c1Cl (stereo not shown) [Cpd 175],–,0.072 µM,104%,–
COc1ccc(CC(c2sc3ccccc3c2Cl)P(=O)(OC(C)C)OC(C)C)cc1C(F)(F)F (stereo not shown) [Cpd 176],–,0.131 µM,104%,–
CC(C)OP(=O)(OC(C)C)C(Cc1cccc(C(F)(F)F)c1Cl)c1sc2ccccc2c1Cl (stereo not shown) [Cpd 177],–,0.139 µM,96%,–
CC(C)OP(=O)(OC(C)C)C(Cc1cc(C(F)(F)F)ccc1Cl)c1sc2ccccc2c1Cl (stereo not shown) [Cpd 178],–,0.355 µM,79%,–
CC(C)OP(=O)(OC(C)C)C(Cc1ccccc1)c1sc2ccccc2c1Cl (stereo not shown) [Cpd 179],–,0.068 µM,103%,–
CC(C)OP(=O)(OC(C)C)C(Cc1cccc(Cl)c1)c1sc2ccccc2c1Cl (stereo not shown) [Cpd 180],–,0.075 µM,103%,–
CC(C)OP(=O)(OC(C)C)C(Cc1ccc(Cl)cc1)c1sc2ccccc2c1Cl (stereo not shown) [Cpd 181],–,0.112 µM,103%,–
CC(C)OP(=O)(OC(C)C)C(Cc1cccc(Br)c1)c1sc2ccccc2c1Cl (stereo not shown) [Cpd 182],–,0.075 µM,104%,–
CC(C)OP(=O)(OC(C)C)C(Cc1c(Cl)cccc1Cl)c1sc2ccccc2c1Cl (stereo not shown) [Cpd 183],–,0.131 µM,103%,–
CC(C)OP(=O)(OC(C)C)C(Cc1ccc(OC(F)(F)F)c(Cl)c1)c1sc2ccccc2c1Cl (stereo not shown) [Cpd 184],–,0.057 µM,104%,–
CC(C)OP(=O)(OC(C)C)C(Cc1cccc(Cl)c1F)c1sc2ccccc2c1Cl (stereo not shown) [Cpd 185],–,0.071 µM,103%,–
CC(C)OP(=O)(OC(C)C)C(Cc1cc(F)cc(Cl)c1)c1sc2ccccc2c1Cl (stereo not shown) [Cpd 186],–,0.051 µM,104%,–
CC(C)OP(=O)(OC(C)C)C(Cc1ccc(OC(F)(F)F)cc1)c1sc2ccccc2c1Cl (stereo not shown) [Cpd 187],–,0.062 µM,103%,–
CC(C)OP(=O)(OC(C)C)C(Cc1ccc(F)c(C(F)(F)F)c1)c1sc2ccccc2c1Cl (stereo not shown) [Cpd 188],–,0.064 µM,103%,–
CC(C)OP(=O)(OC(C)C)C(Cc1ccc(C(F)(F)F)cc1F)c1sc2ccccc2c1Cl (stereo not shown) [Cpd 191],–,0.125 µM,104%,–
CC(C)OP(=O)(OC(C)C)C(Cc1cccc(F)c1)c1sc2ccccc2c1Br (stereo not shown) [Cpd 192],103%,0.038 µM,–,–
CC(C)OP(=O)(OC(C)C)C(Cc1cc(F)cc(F)c1)c1sc2ccccc2c1Br (stereo not shown) [Cpd 193],103%,0.059 µM,–,–
CC(C)OP(=O)(OC(C)C)C(Cc1cccc(F)c1F)c1sc2ccccc2c1Br (stereo not shown) [Cpd 194],103%,0.041 µM,–,–
